Test results published in ChEMBL document CHEMBL4402606, “Design and Characterization of the First Selective and Potent Mechanism-Based Inhibitor of Cytochrome P450 4Z1” (J Med Chem, 2020).

Columns and labels:
Cytochrome P450 4Z1 [1] = target: T1, Cytochrome P450 4Z1 (Homo sapiens, UniProt Q86W10); experiment: Inhibition of CYP4Z1 (unknown origin) in human HepG2 cell membranes transduced with lentiviral vector using luciferin-benzyl ether as substrate incubated for 5 mins followed by NADPH addition and measured after 20 mins by P450-glo luciferase based luminescence assay
T1 sequence (Q86W10 whole entry): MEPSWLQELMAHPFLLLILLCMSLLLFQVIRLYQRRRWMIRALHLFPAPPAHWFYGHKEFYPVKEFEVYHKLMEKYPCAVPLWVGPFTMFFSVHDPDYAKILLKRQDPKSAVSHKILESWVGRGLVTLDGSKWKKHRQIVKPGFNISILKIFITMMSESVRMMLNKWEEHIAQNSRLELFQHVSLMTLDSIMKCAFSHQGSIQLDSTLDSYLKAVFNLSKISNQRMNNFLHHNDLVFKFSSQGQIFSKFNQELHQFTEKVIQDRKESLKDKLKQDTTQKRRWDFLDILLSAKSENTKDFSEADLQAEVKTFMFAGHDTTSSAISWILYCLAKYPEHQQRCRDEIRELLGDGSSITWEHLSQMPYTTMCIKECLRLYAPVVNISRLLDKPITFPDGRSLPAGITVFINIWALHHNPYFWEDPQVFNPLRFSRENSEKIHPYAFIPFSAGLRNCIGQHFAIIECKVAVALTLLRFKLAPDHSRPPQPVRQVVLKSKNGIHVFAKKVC

Cytochrome P450 4Z1 [2] = target: T1, Cytochrome P450 4Z1; experiment: Inhibition of CYP4Z1 (unknown origin) in human HepG2 cell membranes transduced with lentiviral vector using luciferin-benzyl ether as substrate preincubated with NADPH for 30 mins followed by substrate addition and measured after 10 mins by P450-glo luciferase based luminescence assay
T47D = experiment: Cytotoxicity against human T47D cells at 3 uM after 24 hrs by CellTiter-Glo luminescent cell viability assay; assay type: cell-based
HepG2 = experiment: Cytotoxicity against human HepG2 cells at 3 uM after 24 hrs by CellTiter-Glo luminescent cell viability assay; assay type: cell-based; conditions: hepg2, 24 h
Cytochrome P450 2D6 [3] = target: T2, Cytochrome P450 2D6 (Homo sapiens, UniProt P10635); experiment: Inhibition of CYP2D6 in human pooled liver microsomes using dextromethorphan as substrate preincubated with NADPH for 30 mins followed by substrate addition and measured after 10 mins by UPLC-MS/MS analysis; assay type: ADME
Cytochrome P450 2C9 [4] = target: T3, Cytochrome P450 2C9 (Homo sapiens, UniProt P11712); experiment: Inhibition of CYP2C9 in human pooled liver microsomes using tolbutamide as substrate preincubated with NADPH for 30 mins followed by substrate addition and measured after 10 mins by UPLC-MS/MS analysis; assay type: ADME
Cytochrome P450 2C9 [5] = target: T3, Cytochrome P450 2C9; experiment: Inhibition of CYP2C9 in human pooled liver microsomes using tolbutamide as substrate after 10 mins by UPLC-MS/MS analysis; assay type: ADME
Cytochrome P450 2C8 [6] = target: T4, Cytochrome P450 2C8 (Homo sapiens, UniProt P10632); experiment: Inhibition of CYP2C8 in human pooled liver microsomes using amodiaquine as substrate after 10 mins by UPLC-MS/MS analysis; assay type: ADME
T4 sequence (P10632 whole entry): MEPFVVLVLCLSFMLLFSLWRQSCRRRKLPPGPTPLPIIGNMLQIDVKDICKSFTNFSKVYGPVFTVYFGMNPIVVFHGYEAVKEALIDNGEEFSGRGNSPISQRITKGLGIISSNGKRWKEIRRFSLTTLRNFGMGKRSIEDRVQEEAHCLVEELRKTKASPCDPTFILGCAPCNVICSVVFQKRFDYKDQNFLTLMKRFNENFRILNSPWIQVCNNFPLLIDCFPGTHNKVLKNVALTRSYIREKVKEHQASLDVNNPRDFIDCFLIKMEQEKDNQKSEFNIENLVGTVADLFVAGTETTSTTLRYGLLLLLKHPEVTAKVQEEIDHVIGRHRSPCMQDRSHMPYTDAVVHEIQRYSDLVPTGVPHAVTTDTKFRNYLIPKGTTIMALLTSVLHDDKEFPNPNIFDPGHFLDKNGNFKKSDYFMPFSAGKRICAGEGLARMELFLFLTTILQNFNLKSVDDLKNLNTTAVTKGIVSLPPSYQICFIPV

Cytochrome P450 2D6 [7] = target: T2, Cytochrome P450 2D6; experiment: Inhibition of CYP2D6 in human pooled liver microsomes using dextromethorphan as substrate after 10 mins by UPLC-MS/MS analysis; assay type: ADME
Cytochrome P450 2C19 [8] = target: T5, Cytochrome P450 2C19 (Homo sapiens, UniProt P33261); experiment: Inhibition of CYP2C19 in human pooled liver microsomes using (S)-mephenytoin as substrate after 10 mins by UPLC-MS/MS analysis; assay type: ADME
CYP3A4/5 [9] = target: T6, CYP3A4/5 (Homo sapiens, UniProt P08684+P20815); experiment: Inhibition of CYP3A4/5 in human pooled liver microsomes using midazolam as substrate after 10 mins by UPLC-MS/MS analysis; assay type: ADME; conditions: probe midazolam
Cytochrome P450 2C19 [10] = target: T5, Cytochrome P450 2C19; experiment: Inhibition of CYP2C19 in human pooled liver microsomes using (S)-mephenytoin as substrate preincubated with NADPH for 30 mins followed by substrate addition and measured after 10 mins by UPLC-MS/MS analysis; assay type: ADME
Cytochrome P450 2C8 [11] = target: T4, Cytochrome P450 2C8; experiment: Inhibition of CYP2C8 in human pooled liver microsomes using amodiaquine as substrate preincubated with NADPH for 30 mins followed by substrate addition and measured after 10 mins by UPLC-MS/MS analysis; assay type: ADME
CYP3A4/5 [12] = target: T6, CYP3A4/5; experiment: Inhibition of CYP3A4/5 in human pooled liver microsomes using midazolam as substrate preincubated with NADPH for 30 mins followed by substrate addition and measured after 10 mins by UPLC-MS/MS analysis; assay type: ADME; conditions: probe midazolam
Cytochrome P450 1A2 [13] = target: T7, Cytochrome P450 1A2 (Homo sapiens, UniProt P05177); experiment: Inhibition of CYP1A2 in human pooled liver microsomes using phenacetin as substrate preincubated with NADPH for 30 mins followed by substrate addition and measured after 10 mins by UPLC-MS/MS analysis; assay type: ADME
T7 sequence (P05177 whole entry): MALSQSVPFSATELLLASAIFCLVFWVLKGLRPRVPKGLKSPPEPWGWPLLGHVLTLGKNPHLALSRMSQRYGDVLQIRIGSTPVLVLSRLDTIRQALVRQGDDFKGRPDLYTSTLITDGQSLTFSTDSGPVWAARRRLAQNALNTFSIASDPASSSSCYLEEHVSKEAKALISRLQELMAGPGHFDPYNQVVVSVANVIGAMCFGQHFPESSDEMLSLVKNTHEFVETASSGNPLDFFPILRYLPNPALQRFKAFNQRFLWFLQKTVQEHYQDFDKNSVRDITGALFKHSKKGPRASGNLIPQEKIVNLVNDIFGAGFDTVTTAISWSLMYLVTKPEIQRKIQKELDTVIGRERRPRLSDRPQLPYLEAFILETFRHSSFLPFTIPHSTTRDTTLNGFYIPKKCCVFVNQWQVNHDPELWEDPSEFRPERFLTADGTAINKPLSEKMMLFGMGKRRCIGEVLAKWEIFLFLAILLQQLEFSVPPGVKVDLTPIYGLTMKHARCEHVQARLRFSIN

Cytochrome P450 1A2 [14] = target: T7, Cytochrome P450 1A2; experiment: Inhibition of CYP1A2 in human pooled liver microsomes using phenacetin as substrate after 10 mins by UPLC-MS/MS analysis; assay type: ADME

T3 sequence (P11712 whole entry): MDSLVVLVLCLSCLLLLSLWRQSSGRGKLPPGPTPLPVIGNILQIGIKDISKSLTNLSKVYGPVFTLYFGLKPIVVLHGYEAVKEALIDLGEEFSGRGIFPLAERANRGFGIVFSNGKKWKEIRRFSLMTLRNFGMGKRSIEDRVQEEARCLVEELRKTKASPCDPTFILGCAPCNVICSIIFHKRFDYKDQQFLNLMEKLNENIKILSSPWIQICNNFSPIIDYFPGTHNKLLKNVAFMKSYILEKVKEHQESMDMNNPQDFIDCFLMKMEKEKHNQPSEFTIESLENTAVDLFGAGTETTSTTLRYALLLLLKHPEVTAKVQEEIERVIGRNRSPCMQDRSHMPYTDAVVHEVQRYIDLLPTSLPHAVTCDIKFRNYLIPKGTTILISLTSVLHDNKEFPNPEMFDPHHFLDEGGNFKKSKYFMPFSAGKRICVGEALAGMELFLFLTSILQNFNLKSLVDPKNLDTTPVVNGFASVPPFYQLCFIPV
T2 sequence (P10635 whole entry): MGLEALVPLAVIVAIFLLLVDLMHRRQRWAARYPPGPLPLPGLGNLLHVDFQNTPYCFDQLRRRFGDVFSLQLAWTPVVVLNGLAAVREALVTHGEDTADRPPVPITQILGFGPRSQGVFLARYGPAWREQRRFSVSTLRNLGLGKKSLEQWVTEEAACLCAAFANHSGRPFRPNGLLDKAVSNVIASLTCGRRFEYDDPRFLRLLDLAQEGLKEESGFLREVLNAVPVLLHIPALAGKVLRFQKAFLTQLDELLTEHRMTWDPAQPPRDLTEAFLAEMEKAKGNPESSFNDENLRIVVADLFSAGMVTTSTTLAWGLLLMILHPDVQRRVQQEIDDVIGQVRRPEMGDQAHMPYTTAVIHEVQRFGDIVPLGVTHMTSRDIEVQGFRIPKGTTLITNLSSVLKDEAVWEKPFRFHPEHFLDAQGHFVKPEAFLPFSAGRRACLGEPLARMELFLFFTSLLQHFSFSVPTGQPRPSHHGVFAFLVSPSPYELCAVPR
T5 sequence (P33261 whole entry): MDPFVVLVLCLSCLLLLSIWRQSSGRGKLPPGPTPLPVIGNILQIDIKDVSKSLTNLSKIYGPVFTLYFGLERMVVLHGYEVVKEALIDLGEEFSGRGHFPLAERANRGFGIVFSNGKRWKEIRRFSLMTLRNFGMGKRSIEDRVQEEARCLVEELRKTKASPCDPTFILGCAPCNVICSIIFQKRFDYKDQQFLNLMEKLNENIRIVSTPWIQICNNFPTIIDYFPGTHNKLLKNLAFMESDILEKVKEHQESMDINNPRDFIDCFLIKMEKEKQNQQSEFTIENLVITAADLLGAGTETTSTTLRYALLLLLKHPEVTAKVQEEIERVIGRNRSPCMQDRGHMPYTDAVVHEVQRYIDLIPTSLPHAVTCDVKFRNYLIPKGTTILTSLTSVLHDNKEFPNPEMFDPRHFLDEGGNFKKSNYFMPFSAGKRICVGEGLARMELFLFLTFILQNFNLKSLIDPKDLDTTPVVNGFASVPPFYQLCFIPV

IC50 (Cytochrome P450 2D6 [3]) | IC50 (Cytochrome P450 2C9 [4]) | IC50 (Cytochrome P450 2C9 [5]) | IC50 (Cytochrome P450 2C8 [6]) | IC50 (Cytochrome P450 2D6 [7]) | IC50 (Cytochrome P450 2C19 [8]) | IC50 at 10 min (CYP3A4/5 [9]) | IC50 (Cytochrome P450 2C19 [10]) | IC50 (Cytochrome P450 2C8 [11]) | IC50 at 10 min (CYP3A4/5 [12]) | IC50 (Cytochrome P450 1A2 [13]) | IC50 (Cytochrome P450 1A2 [14]) | Structure (SMILES) | IC50 (Cytochrome P450 4Z1 [1]) | IC50 (Cytochrome P450 4Z1 [2]) | Activity (T47D) | Activity (HepG2)
 |  |  |  |  |  |  |  |  |  |  |  | Nn1nnc2ccccc21 | 154 µM | 12 µM |  | 
0.299 mM | 0.33 mM | 343 µM | 0.306 mM | 0.826 mM | 759 µM | 244 µM | 246 µM | 84 µM | 128 µM | 55 µM | 0.614 mM | O=C(O)CCCCCCCNn1nnc2ccccc21 |  |  | Non-Toxic | Non-Toxic
1.71 mM | 1.94 mM | > 3000 µM | 2.31 mM | 2.85 mM | > 3000 µM | 1310 µM | 1640 µM | 954 µM | 766 µM | 228 µM | 2.79 mM | O=C(O)CCCCCNn1nnc2ccccc21 |  |  |  | 
